From ChEMBL document CHEMBL1128293, “4,4-Disubstituted piperidines: a new class of NK1 antagonist” (J Med Chem, 1995) come the findings set out here.

In this experiment the target is Substance-P receptor (Homo sapiens, UniProt P25103). The experiment can be described thus: Antagonistic activity against human Tachykinin receptor 1. The format is functional.
Chain of Substance-P receptor (P25103 whole entry): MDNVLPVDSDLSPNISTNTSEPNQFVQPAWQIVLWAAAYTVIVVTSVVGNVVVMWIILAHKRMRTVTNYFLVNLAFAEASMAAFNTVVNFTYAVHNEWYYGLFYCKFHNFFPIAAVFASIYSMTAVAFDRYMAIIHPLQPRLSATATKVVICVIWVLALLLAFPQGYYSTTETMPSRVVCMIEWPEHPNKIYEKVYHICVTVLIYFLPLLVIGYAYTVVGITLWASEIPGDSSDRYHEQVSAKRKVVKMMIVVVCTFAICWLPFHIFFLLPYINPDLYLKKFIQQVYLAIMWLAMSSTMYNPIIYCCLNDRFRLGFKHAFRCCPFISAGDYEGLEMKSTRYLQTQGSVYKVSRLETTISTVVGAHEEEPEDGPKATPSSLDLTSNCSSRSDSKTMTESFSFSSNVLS
Consider `FC(F)(F)c1cccc(COCC2(c3ccccc3)CCNCC2)c1`, for which the IC50 – broadly, the concentration that inhibits the measured activity by half – was determined as 57 nM.

Turning to `Clc1cc(Cl)cc(COCC2(c3ccccc3)CCNCC2)c1`, 4.6 nM corresponded to half-maximal inhibition (IC50).

Take `Cc1cc(C)cc(COCC2(c3ccccc3)CCNCC2)c1`: 9 nM corresponded to half-maximal inhibition (IC50).
